This is an account of results in PubChem BioAssay AID248 (DTP/NCI, 2004).

This assay relates to L1210 leukemia ip in BDF1 mice, survival T/C. Kind of assay: NCI In Vivo Anticancer Drug Screen. Data for tumor model L1210 Leukemia (intraperitoneal) in B6D2F1 (BDF1) mice. Conditions: endpoint: mean survival time, higher = longer survival. The method in brief: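 Tumor cells were implanted, animals were treated, and survival was followed. The result divides the treated measurement by the vehicle-control measurement.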

The mark [1] stands for this setting: dose: 100.0 mg/kg/injection, schedule: Q04DX003 (ip), vehicle: Klucel (hydroxypropylcellulose) (HPC).
[2] abbreviates: dose: 400.0 mg/kg/injection, schedule: Q04DX003 (ip), vehicle: Klucel (hydroxypropylcellulose) (HPC).

The structures appear in SMILES notation. Several values for one entry are separate records, joined by “and”; a condition that tells them apart may be missing. Equal entries are not always repeated. Inconclusive results and toxic doses are left out.

As to `CSc1nc(N)c2c(=O)c(C(N)=O)cn(C3OC(CO)C(O)C3O)c2n1` (stereo not given), the T/C runs as follows: (dose: 100.0 mg/kg/injection, schedule: Q01DX005 (ip), vehicle: saline) 95 % of control; (dose: 200.0 mg/kg/injection, schedule: Q01DX005 (ip), vehicle: saline) 93 % of control.

As for `CCn1cnc2c(=S)nc[nH]c21`, the T/C by setting is: (dose: 4.62 mg/kg/injection, schedule: Q01DX Z (ip), vehicle: carboxymethylcellulose (CMC)) 98 % of control; (dose: 7.5 mg/kg/injection, schedule: Q01DX005 (ip), vehicle: other) 106 % of control; (dose: 7.5 mg/kg/injection, schedule: Q01DX009 (ip), vehicle: other) 102 % of control; (dose: 7.5 mg/kg/injection, schedule: Q01DX009 (sc), vehicle: other) 124 % of control; (dose: 9.25 mg/kg/injection, schedule: Q01DX Z (ip), vehicle: carboxymethylcellulose (CMC)) 108 % of control; (dose: 9.25 mg/kg/injection, schedule: Q01DX Z (oral), vehicle: carboxymethylcellulose (CMC)) 110 % of control. Also, the T/C runs as follows: (dose: 15.0 mg/kg/injection, schedule: Q01DX005 (ip), vehicle: other) 102 % of control; (dose: 15.0 mg/kg/injection, schedule: Q01DX009 (ip), vehicle: other) 107 % of control; (dose: 15.0 mg/kg/injection, schedule: Q01DX009 (oral), vehicle: other) 115 % of control; (dose: 15.0 mg/kg/injection, schedule: Q01DX009 (sc), vehicle: other) 103 % of control; (dose: 18.5 mg/kg/injection, schedule: Q01DX Z (ip), vehicle: carboxymethylcellulose (CMC)) 108 % of control; (dose: 18.5 mg/kg/injection, schedule: Q01DX Z (oral), vehicle: carboxymethylcellulose (CMC)) 110 % of control. Further, the T/C (dose: 30.0 mg/kg/injection, schedule: Q01DX005 (ip), vehicle: other) is 116 % of control; the T/C (dose: 30.0 mg/kg/injection, schedule: Q01DX009 (ip), vehicle: other) was 117 % of control; the T/C (dose: 30.0 mg/kg/injection, schedule: Q01DX009 (oral), vehicle: other) is 115 % of control; the T/C (dose: 30.0 mg/kg/injection, schedule: Q01DX009 (sc), vehicle: other) is 119 % of control; the T/C (dose: 30.0 mg/kg/injection, schedule: Q## X024 (ip), vehicle: other) was 102 % of control; the T/C (dose: 31.3 mg/kg/injection, schedule: Q01DX009 (ip), vehicle: saline) is 100 % of control and 104 % of control. The T/C is, setting by setting: (dose: 31.3 mg/kg/injection, schedule: Q01DX010 (ip), vehicle: saline) 92 % of control and 95 % of control; (dose: 37.0 mg/kg/injection, schedule: Q01DX Z (ip), vehicle: carboxymethylcellulose (CMC)) 112 % of control; (dose: 37.0 mg/kg/injection, schedule: Q01DX Z (oral), vehicle: carboxymethylcellulose (CMC)) 120 % of control; (dose: 37.5 mg/kg/injection, schedule: Q## X003 (ip), vehicle: other) 100 % of control; (dose: 60.0 mg/kg/injection, schedule: Q01DX005 (ip), vehicle: other) 123 % of control; (dose: 60.0 mg/kg/injection, schedule: Q## X008 (ip), vehicle: other) 107 % of control. Moreover, the T/C (dose: 60.0 mg/kg/injection, schedule: Q## X016 (ip), vehicle: other) is 109 % of control; the T/C (dose: 60.0 mg/kg/injection, schedule: Q## X024 (ip), vehicle: other) is 114 % of control; the T/C (dose: 62.5 mg/kg/injection, schedule: Q01DX009 (ip), vehicle: saline) was 106 % of control and 112 % of control; the T/C (dose: 62.5 mg/kg/injection, schedule: Q01DX010 (ip), vehicle: saline) was 107 % of control and 108 % of control; the T/C (dose: 75.0 mg/kg/injection, schedule: Q01DX001 (ip), vehicle: other) is 102 % of control; the T/C (dose: 75.0 mg/kg/injection, schedule: Q01DX001 (sc), vehicle: other) is 113 % of control. Besides, the T/C (dose: 75.0 mg/kg/injection, schedule: Q## X002 (ip), vehicle: other) is 98 % of control; the T/C (dose: 75.0 mg/kg/injection, schedule: Q## X003 (ip), vehicle: other) was 100 % of control; the T/C (dose: 120.0 mg/kg/injection, schedule: Q01DX009 (oral), vehicle: other) was 151 % of control; the T/C (dose: 120.0 mg/kg/injection, schedule: Q## X008 (ip), vehicle: other) was 117 % of control; the T/C (dose: 125.0 mg/kg/injection, schedule: Q01DX010 (ip), vehicle: saline) was 122 % of control; the T/C (dose: 150.0 mg/kg/injection, schedule: Q01DX001 (ip), vehicle: other) is 108 % of control. The T/C runs as follows: (dose: 150.0 mg/kg/injection, schedule: Q01DX001 (oral), vehicle: other) 117 % of control; (dose: 150.0 mg/kg/injection, schedule: Q01DX001 (sc), vehicle: other) 117 % of control; (dose: 150.0 mg/kg/injection, schedule: Q## X002 (ip), vehicle: other) 101 % of control; (dose: 240.0 mg/kg/injection, schedule: Q## X016 (ip), vehicle: other) 152 % of control; (dose: 240.0 mg/kg/injection, schedule: Q## X024 (ip), vehicle: other) 165 % of control; (dose: 250.0 mg/kg/injection, schedule: Q01DX009 (ip), vehicle: saline) 110 % of control and 124 % of control. Also, the T/C is 119 % of control (dose: 300.0 mg/kg/injection, schedule: Q01DX001 (oral), vehicle: other); 162 % of control (dose: 300.0 mg/kg/injection, schedule: Q## X003 (ip), vehicle: other); 157 % of control (dose: 480.0 mg/kg/injection, schedule: Q## X008 (ip), vehicle: other); 153 % of control (dose: 480.0 mg/kg/injection, schedule: Q## X016 (ip), vehicle: other); 123 % of control (dose: 600.0 mg/kg/injection, schedule: Q01DX001 (oral), vehicle: other); 121 % of control (dose: 600.0 mg/kg/injection, schedule: Q01DX001 (sc), vehicle: other).

For `Clc1ccccc1Nc1ccnc(SCc2ccccc2)n1`, the T/C is 93 % of control (dose: 25.0 mg/kg/injection, schedule: Q01DX001 (ip), vehicle: DMSO); 96 % of control (dose: 25.0 mg/kg/injection, schedule: Q04DX003 (ip), vehicle: DMSO); 100 % of control (dose: 50.0 mg/kg/injection, schedule: Q01DX001 (ip), vehicle: DMSO); 95 % of control (dose: 50.0 mg/kg/injection, schedule: Q04DX003 (ip), vehicle: DMSO); 88 % of control and 92 % of control (dose: 100.0 mg/kg/injection, schedule: Q01DX001 (ip), vehicle: DMSO); 93 % of control (dose: 100.0 mg/kg/injection, schedule: Q04DX003 (ip), vehicle: DMSO).

Regarding `O=C1OC(=O)C2C3C=CC(C3=C(c3ccccc3)c3ccccc3)C12` (stereo not given), the T/C is 92 % of control (dose: 100.0 mg/kg/injection, schedule: Q01DX009 (ip), vehicle: Klucel (hydroxypropylcellulose) (HPC)); 97 % of control (dose: 100.0 mg/kg/injection, schedule: Q01DX009 (ip), vehicle: saline with Tween-80); 92 % of control under setting [1]; 97 % of control (dose: 200.0 mg/kg/injection, schedule: Q01DX009 (ip), vehicle: Klucel (hydroxypropylcellulose) (HPC)); 100 % of control (dose: 200.0 mg/kg/injection, schedule: Q01DX009 (ip), vehicle: saline with Tween-80); 90 % of control (dose: 200.0 mg/kg/injection, schedule: Q04DX003 (ip), vehicle: saline with Tween-80). The T/C was 87 % of control under setting [2] and 92 % of control (dose: 400.0 mg/kg/injection, schedule: Q04DX003 (ip), vehicle: saline with Tween-80).

For the compound `COc1cc(C=Nc2ccccc2)cc(OC)c1OC`, the T/C under setting [1] was 104 % of control; the T/C (dose: 200.0 mg/kg/injection, schedule: Q04DX003 (ip), vehicle: Klucel (hydroxypropylcellulose) (HPC)) was 102 % of control; the T/C under setting [2] is 95 % of control.

For `CC(=O)NC(C)C(C)C` (stereo not given), the T/C (dose: 100.0 mg/kg/injection, schedule: Q04DX003 (ip), vehicle: saline) is 94 % of control; the T/C (dose: 200.0 mg/kg/injection, schedule: Q04DX003 (ip), vehicle: saline) was 107 % of control; the T/C (dose: 400.0 mg/kg/injection, schedule: Q04DX003 (ip), vehicle: saline) was 104 % of control.
